Laboratory results: patent publication US20080014247A1, “METAL-CONTAINING FORMULATIONS AND METHODS OF USE” (Nucryst Pharmaceuticals, priority 2006, published 2008)
Values after ≈ are worked out from the molar mass of the structure shown. “Also recorded” adds a separate entry of the source. Read-outs that look alike come from different tables or passages of the source.

Tests used:
[1] = Compatibility of nanocrystalline silver with excipients; type: physicochemical; conditions: 10% aqueous solution of excipient, 40° C. overnight
Pseudomonas aeruginosa = test: MIC assay (microdilution); type: cell-based
Escherichia coli = test: MIC assay (microdilution); type: cell-based
Enterobacter cloacae = test: MIC assay (microdilution); type: cell-based
TNF-α = test: Immunohistochemical staining of colon tissue; type: in vivo, rat; conditions: oral treatment, five days
Experimental: (§1) Immunohistochemistry: A Universal Streptavidin/Biotin detection system (Thermo Shandon, Pittsburgh, Pa.) was used for immunohistochemical staining of formalin fixed, paraffin embedded biopsies of the colon. After dewaxing, and hydration, sections were treated with protein blocking agent to reduce non-specific binding of antibodies. The tissues were then incubated with rabbit anti-rat TNF-α, or mouse anti-rat IL-12 p70 antibodies (Biosource International, Inc, Camarillo, Calif.); rabbit anti-rat IL-1β (Serotec, Raleigh, N.C.) or rabbit anti-rat MMP-9 antibody (Chemicon International, Telecuma, Calif.) in 1% bovine serum albumin in phosphate buffered saline. Incubations with secondary antibodies, streptavidin/biotin, and chromogenic detection of peroxidase were performed according to the manufacturer's protocol. Sections were counterstained, dehydrated, mounted and examined. The intensity of the immuno-peroxidase staining was graded as described previously. Expression of cytokines was graded as: 0, no staining in the section; 1, less than 25% of the section; 2, 25-50% of the section; 3, 50-75% of the section; 4, >75% of the section with significant staining.

IL-1β = test: Immunohistochemical staining of colon tissue; type: in vivo, rat; conditions: oral treatment, five days
Experimental: as §1

MMP-9 [2] = test: Immunohistochemical staining of colon tissue; type: in vivo, rat; conditions: oral treatment, five days
Experimental: as §1

MMP-9 [3] = test: Gelatin zymography of colonic homogenates; type: in vivo, rat; conditions: oral 100 mg/kg
Experimental: Gelatin Zymography Activities of MMP-9 and MMP-2 in colonic tissue homogenates were determined by gelatin zymography as described previously. Briefly, colonic homogenates were mixed with equal volume of zymograph sample buffer. Samples were loaded on a 10% SDS-polyacrylamide gel containing 0.1% gelatin. After electrophoresis, the SDS was removed from the gel by incubation with renaturing buffer containing 2% Triton-X-100 for 1 hour. The gel was incubated overnight in developing buffer containing 50 mM Tris-HCl, pH 7.8, 5 mM CaCl2, 0.2 M NaCl, 0.02% Brij-35. The gel was subsequently stained with Coumassie blue for 30 minutes and destained with destaining solution containing 8% acetic acid and 4% methanol. Gelatinolytic activity was determined as transparent bands against the blue background of stained gelatin. MMPs were identified by their molecular weight compared with the standards. Absence of a transparent band on the gel was evidenced as no MMP-9 or MMP-2 activity of the sample tested.

[4] = DNBS-induced colitis in rat: body weight; type: in vivo; conditions: rats with DNBS colitis, intracolonic or oral treatment
DNBS-induced colitis [5] = test: DNBS-induced colitis in rat: total IBD score; type: in vivo
Excerpt: Animals: Male Sprague-Dawley rats, weighing approximately 250-300 gm were purchased from Charles River Laboratories (Raleigh, N.C.). The animals were housed under standard conditions with free access to food and water. They were acclimatized for 2-3 days before commencing the experiments. The study protocol was approved by the Institutional Animal Care and Use Committees (IACUC).
Induction of ulcerative colitis: Colitis was produced according to published methods. Animals were anesthetized by intraperitoneal injection of 75 mg/kg of ketamine plus 5 mg/kg of xylazine. A single intracolonic injection of 120 mg/ml of dinitrobenzenesulfonic acid (DNBS) (Sigma Chemicals, St. Louis, Mo.) in 250 micro liter of 50% ethanol was administered through a Tom Cat catheter (Kendall Sovereign, Mansfield, Mass.) with a closed-end tip, connected to a 1 ml syringe and placed 7 cm proximal to the anus. Lubricant was applied to the tip of the catheter before injection, to protect from mucosal injury. After instillation of DNBS, 0.5 ml of air was insufflated and the catheter was removed.
Sulfasalazine (Sigma Chemicals, St Louis, Mo.), at a concentration of 120 mg/ml for intracolonic treatment and 30 mg/ml for oral treatment was used as the reference drug in all the experiments. Sulfasalazine was first dissolved in 0.1M NaOH at a concentration about 30-fold higher than the required final concentration, and then suspended in 1.5% PVA for oral dosing and 5.7% PVA for intracolonic dosing.
One group was not treated and served as no treatment group. Treatment began one day after administration of DNBS.
Macroscopic Observations: Body weight was recorded daily and the animals were examined for their physical appearance. After five days of treatment, animals were sacrificed. The colon was excised between the ileocecal junction and rectum, and opened longitudinally. After scoring of the consistency of the stool the colon was rinsed in normal saline, examined and thickness of the colonic wall and number and size of ulcers were scored. Stool consistency was graded on a scale of 0-3: 0=normal stool, well formed pellets rigid as normal; 1=loose stool, formed pellet with moisture, soft stool keeping in stool shape; 2=loose stool, stools that have abnormal form with much moisture, softer shapeless stool; 3=watery or bloody diarrhea.
Thickness of colonic wall was graded on a scale of 0-4: 0=normal, no thickness; 1=mild thickness in lower portion of the colon; 2=moderate thickness in localized area; 3=moderate thickness extending to the central portion of the colon; 4=severe thickness in the whole colon. Colonic ulceration was graded on a scale of 0-10: 0=no ulcers; 1=one small ulcer less than 2-3 mm; 2=one large ulcer more than 2-3 mm; 3=two large ulcerations more than 2-3 mm in diameter; 4=two or more sites of ulcerations extending 1 cm along the length; 5-10=when an area of ulceration extended more than 1 cm along the length of the colon, the score increases by 1 for each additional cm of involvement. The total IBD score, obtained by the sum of the scores of colonic ulcer, colon thickness and stool consistency for each animal, was calculated for each treatment group.
Methods: Colitis was induced in rats using DNBS as described in Example 25. Animals were treated intracolonically (250 μl of the test reagents) once a day for five days. […] Methods: Colitis was induced in rats using DNBS as described in Example 25. Animals were treated intracolonically (250 μl of the test reagents) once a day for five days.

DNBS-induced colitis [6] = test: DNBS-induced colitis in rat: colon histopathological inflammation score; type: in vivo; conditions: oral 100 mg/kg, five days
Experimental: Histopathology: A piece of colonic tissue at 2-4 cm proximal to the anus was excised and fixed in 10% formalin and the sections were stained with hematoxylin and eosin. The remaining length of the colonic tissues was stored at −80° C. for subsequent biochemical assays. The histology slides were examined by a veterinary pathologist who was blinded to the treatment groups. The extent of microscopic mucosal damage of the colon was scored on scale of 0-5 as described with slight modification: 0=normal histological appearance; 1=histological damage limited to surface epithelium, mild infiltration of the submucosa; 2=focal ulceration and cell disruption limited to mucosa, abnormal appearance of colonic wall, mild infiltration of inflammatory cells; 3=focal, transmural inflammation and ulceration, with mild to moderate infiltration of inflammatory cells; 4=Extensive transmural ulceration and inflammation bordered by areas of normal mucosa, moderate infiltration of inflammatory cells; 5=extensive transmural ulceration and inflammation involving entire section from epithelium to serosa, severe infiltration of inflammatory cells.

[7] = test system: Mycobacterium tuberculosis H37Ra (ATCC 25177); test: microbe, parasite or virus in culture; type: cell-based
Streptococcus pneumoniae = test: MIC assay (microdilution); type: cell-based; conditions: lactate solutions
Staphylococcus aureus = test: MIC assay (microdilution); type: cell-based; conditions: lactate solutions
[8] = test system: Staphylococcus epidermidis; test: MIC assay (microdilution); type: cell-based; conditions: S. epiderm (ATCC); lactate solutions
Streptococcus pyogenes = test: MIC assay (microdilution); type: cell-based; conditions: lactate solutions

CCCCCCCCCCCCCCCCCC(=O)OCC(O)CO (centres unmarked) [Glycerol monostearate]
Reaction with nanocrystalline silver [1]: Brown discoloration

O=C([O-])c1ccccc1.[Na+] [Sodium benzoate]
Reaction with nanocrystalline silver [1]: White precipitate

Sodium parabens
Reaction with nanocrystalline silver [1]: Precipitation

Benzalkonium chloride [BAC]
MIC (Pseudomonas aeruginosa; isolate NP220 (BAC-sensitive)): 63 µg/mL | MIC (Pseudomonas aeruginosa; isolate NP221 (BAC-resistant)): 4000 µg/mL | MIC (Pseudomonas aeruginosa; isolate NP222 (BAC-sensitive)): 63 µg/mL

OO [Sample H2O2, hydrogen peroxide]
Reaction with nanocrystalline silver [1]: Brown discoloration after drying | MIC (Escherichia coli; SOD and catalase +): >500 µg/mL | MIC (Escherichia coli; SOD and catalase −): 31 µg/mL (≈ 911 µM) | MIC (Enterobacter cloacae; SOD and catalase +): >500 µg/mL | MIC (Enterobacter cloacae; SOD and catalase −): 63 µg/mL (≈ 1850 µM)

O=C(O)c1cc(/N=N/c2ccc(S(=O)(=O)Nc3ccccn3)cc2)ccc1O [sulfasalazine, salicylazosulfapyridine]
expression of TNF-α in colonic tissue (TNF-α): significantly reduced the expression of TNF-α and IL-1β | expression of IL-1β in colonic tissue (IL-1β): significantly reduced the expression of TNF-α and IL-1β | expression of MMP-9 in colonic tissue (MMP-9 [2]): significantly reduced the expression of MMP-9 | MMP-9 activity (MMP-9 [3]): reduced MMP-9 activity | body weight [4]: started gaining body weight after one day of treatment | total IBD score (DNBS-induced colitis [5]; intracolonic 100 mg/kg, five days): Significant reduction of IBD score; also recorded: significantly reduced total IBD score | total IBD score (DNBS-induced colitis [5]; intracolonic 100 mg/kg, five days, listed as Sulfasalazine): significantly reduced total IBD score | total IBD score (DNBS-induced colitis [5]; oral 100 mg/kg, five days): significant reduction of the IBD score | histopathological inflammation score (DNBS-induced colitis [6]): significantly reduced the histopathological inflammation

CC[C@@H](CO)NCCN[C@@H](CC)CO [ethambutol]
MIC ([7]; Mycobacterium tuberculosis): 2 µg/mL (≈ 9.79 µM)

CCCOC(=O)c1ccc(O)cc1 [Propylparaben]
Reaction with nanocrystalline silver [1]: Green discoloration

silver oxide [Ag2O]
MIC (Pseudomonas aeruginosa; P. aerug (ATCC), lactate solutions): 0.8 µg/mL | MIC (Pseudomonas aeruginosa; P. aerug. (clin.), lactate solutions): 2 µg/mL | MIC (Streptococcus pneumoniae; S. pneumo (clin 314)): 3 µg/mL | MIC (Streptococcus pneumoniae; S. pneumo (clin 315)): 2 µg/mL | MIC (Escherichia coli; E. coli (ATCC), lactate solutions): 0.8 µg/mL | MIC [7]: 2.5 μg/ml silver | MIC (Staphylococcus aureus; S. aureus (ATCC)): 3 µg/mL | MIC (Staphylococcus aureus; S. aureus (clin.)): 6 µg/mL | MIC [8]: 2 µg/mL | total IBD score (DNBS-induced colitis [5]; 0.05% sonicated nanodispersion, 250 μl intracolonically once a day for five days): but not 0.15% and 0.05%, significantly reduced | total IBD score (DNBS-induced colitis [5]; 0.15% sonicated nanodispersion, 250 μl intracolonically once a day for five days): but not 0.15% and 0.05%, significantly reduced | total IBD score (DNBS-induced colitis [5]; 0.25% homogenized, 250 μl intracolonically once a day for five days): unable to show significant reduction | total IBD score (DNBS-induced colitis [5]; 0.5% homogenized, 250 μl intracolonically once a day for five days): unable to show significant reduction | total IBD score (DNBS-induced colitis [5]; 0.5% sonicated nanodispersion, 250 μl intracolonically once a day for five days, vs placebo): significantly reduced the total IBD score | total IBD score (DNBS-induced colitis [5]; 1.5% sonicated nanodispersion, 250 μl intracolonically once a day for five days): significantly reduced the total IBD score | MIC (Streptococcus pyogenes; S. pyog (clin. 303)): 2 µg/mL | MIC (Streptococcus pyogenes; S. pyog (clin. 304)): 3 µg/mL

CCCCCCCCCCCCCC(=O)OC(C)C [Isopropyl myristate]
Reaction with nanocrystalline silver [1]: Grey color - no discoloration

OCc1ccccc1 [Benzyl alcohol]
Reaction with nanocrystalline silver [1]: Grey/slightly red

CCCCCCCCCCCCCCCCCCO [Cetearyl alcohol]
Reaction with nanocrystalline silver [1]: Light brown/green/black

CC(O)CO (centres unmarked) [Propylene glycol]
Reaction with nanocrystalline silver [1]: Discoloration

CCOCCOCCO [Transcutol, diethylene glycol monoethyl ether]
Reaction with nanocrystalline silver [1]: Grey color - no discoloration

CCCCCCCCCCCCCCCCO [Cetyl alcohol]
Reaction with nanocrystalline silver [1]: Grey color - no discoloration

CCCCCCCCCCCCCCCCCC(=O)O [Stearic acid]
Reaction with nanocrystalline silver [1]: Grey color - no discoloration

COC(=O)c1ccc(O)cc1 [Methylparaben]
Reaction with nanocrystalline silver [1]: Brown discoloration
